Tests used:
HRV-14 = test: Antirhinoviral H1-HeLa cell culture assay (XTT cell protection, EC50), HRV-14; type: cell-based, human rhinovirus (HRV) serotype-14 in H1-HeLa cells; conditions: Rhinovirus B, HRV14, H1-HeLa
In short: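 XTT dye reduction (450/650 nm) measured survival of H1-HeLa cells two days after HRV-14 infection at m.o.i. 0.13 in the presence of compound, giving EC50. The therapeutic index is CC50 divided by EC50.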

H1-HeLa cells = test: Cytotoxicity (CC50) in mock-infected H1-HeLa cells, XTT dye reduction; type: cell-based, human
In short: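 XTT dye reduction (formazan, 450/650 nm) in H1-HeLa cells, mock-infected, gave CC50.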

[1] = tested on: Coxsackievirus type A-21 (CAV-21); test: Anticoxsackieviral cell culture assay (XTT, EC50), CAV-21; type: cell-based, coxsackievirus A-21 in H1-HeLa cells; conditions: Coxsackievirus
Method: Anticoxsackieviral Cell Culture Assay:
Coxsackievirus types A-21 (CAV-21) and B3 (CVB3) were purchased from American Type Culture Collection (ATCC, Rockville, Md.). Virus stocks were propagated and antiviral assays were performed in H1-HeLa cells (ATCC). Cells were grown in minimal essential medium with 10% fetal bovine serum (Life Technologies, Gaithersburg, Md.). The ability of the compounds of this invention to protect cells against either CAV-21 or CVB3 infection was measured by the XTT dye reduction method. This method is described in Weislow et al., J. Natl. Cancer Inst. (1989), vol. 81, 577-586. H1-HeLa cells were infected with CAV-21 or CVB3 at a multiplicity of infection (m.o.i.) of 0.025 or 0.075, respectively, or mock-infected with medium only. H1-HeLa cells were plated at 4×10^4 cells per well in a 96-well plate and incubated with appropriate concentrations of the test compound. One day (CVB3) or two days (CAV-21) later, XTT/PMS was added to test plates and the amount of formazan produced was quantified spectrophotometrically at 450/650 nm. […] The therapeutic index (TI) was calculated by dividing the CC50 by the EC50.

[2] = tested on: Echovirus type 11 (ECHO 11); test: Anti-echoviral cell culture assay (XTT, EC50), ECHO 11; type: cell-based, echovirus 11 in MRC-5 cells; conditions: Enterovirus B
Method: Anti-Echoviral and Anti-Enteroviral Cell Culture Assays
(§1) Echovirus type 11 (ECHO 11) was purchased from ATCC (Rockville, Md.). Virus stocks were propagated and antiviral assays were performed in MRC-5 cells (ATCC). Cells were grown in minimal essential medium with 10% fetal bovine serum (Life Technologies, Gaithersburg, Md.). The ability of the compounds of this invention to protect cells against ECHO 11 infection was measured by the XTT dye reduction method (Weislow et al., J. Natl. Cancer Inst. (1989), vol. 81, 577-586). MRC-5 cells were infected with ECHO 11 at an m.o.i. of 0.003 or 0.004, respectively, or mock-infected with medium only. Infected or uninfected cells were added at 1×10^4 cells per well and incubated with appropriate concentrations of compound. Four days later, XTT/PMS was added to test plates, and the amount of formazan produced was quantified spectrophotometrically at 450/650 nm. […] The therapeutic index (TI) was calculated by dividing the CC50 by the EC50. Activity of the compounds against enterovirus type 70 (EV 70) may be measured by the same assay as described above in this section. Enterovirus type 70 (EV 70) may be obtained from the American Type Culture Collection ATCC (Rockville, Md.).

[3] = Cytotoxicity (CC50) in uninfected MRC-5 cells, XTT dye reduction; type: cell-based, human; conditions: human, MRC-5 cells, uninfected (mock-infected)
Method: as §1

MRC-5 cells = test: as above; type: cell-based, human
Method: as §1

echovirus 6 (ECHO-6) = test: Anti-echoviral cell culture assay (EC50), ECHO-6; type: cell-based; conditions: Enterovirus B
echovirus 9 (ECHO-9) [4] = test: Anti-echoviral cell culture assay (EC50), ECHO-9; type: cell-based; conditions: Enterovirus B
coxsackievirus B2 (CVB2) = test: Antiviral cell culture assay (EC50), coxsackievirus B2; type: cell-based; conditions: Enterovirus B
coxsackievirus B5 (CVB5) = test: Antiviral cell culture assay (EC50), coxsackievirus B5; type: cell-based; conditions: Enterovirus B
echovirus 9 (ECHO-9) [5] = test: Antiviral cell culture assay (EC50), echovirus 9; type: cell-based; conditions: Enterovirus B; ECHO9

SMILES | EC50 (HRV-14) [µM] | CC50 (H1-HeLa cells; line of CVB5) [µM] | CC50 (H1-HeLa cells; line of HRV-1A) [µM] | CC50 (H1-HeLa cells; line of HRV-2) [µM] | CC50 (H1-HeLa cells; line of HRV-3) [µM] | CC50 (H1-HeLa cells; line of HRV-9) [µM] | CC50 (H1-HeLa cells; line of HRV-10) [µM] | CC50 (H1-HeLa cells; line of HRV-11) [µM] | CC50 (H1-HeLa cells; line of HRV-13) [µM] | CC50 (H1-HeLa cells; line of HRV-16) [µM] | CC50 (H1-HeLa cells; line of HRV-19) [µM] | CC50 (H1-HeLa cells; line of HRV-23) [µM] | CC50 (H1-HeLa cells; line of HRV-25) [µM] | CC50 (H1-HeLa cells; line of HRV-39) [µM] | CC50 (H1-HeLa cells; line of HRV-78) [µM] | CC50 (H1-HeLa cells; line of HRV-87) [µM] | CC50 (H1-HeLa cells; line of HRV-Hanks) [µM] | EC50 [1] [µM] | EC50 [2] [µM] | EC50 (echovirus 9 (ECHO-9) [4]) [µM] | also measured
CCOC(=O)/C=C/[C@H](C[C@@H]1CCNC1=O)NC(=O)[C@H](CC)n1cccc(NC(=O)c2cc(C)on2)c1=O [Compound 26, trans-(2′S,3″″S,4S)-4-(2′-{3″-[(5′″-Methylisoxazole-3′″-carbonyl)amino]-2″-oxo-2″H-pyridin-1″-yl}butyrylamino)-5-(2″″-oxopyrrolidin-3″″-yl)pent-2-enoic Acid Ethyl Ester] | 0.055 | > 10 | > 10 | > 10 | > 10 | > 10 | > 10 | > 10 | > 10 | > 10 | > 10 | > 10 | > 10 | > 10 | > 10 | > 10 | > 10 | 0.121 | 0.036 | 0.015 | CC50 at 4 days ([3]; line of ECHO-11): > 10 µM; CC50 (MRC-5 cells; line of ECHO-6): > 10 µM; CC50 (MRC-5 cells; line of ECHO-9): > 10 µM; EC50 (echovirus 6 (ECHO-6)): 0.017 µM
C#CC[C@@H](C(=O)N[C@H](/C=C/C(=O)OCC)C[C@@H]1CCNC1=O)n1cccc(NC(=O)c2cc(C)on2)c1=O [Compound 31, trans-(2′S,3″″S,4S)-4-(2′-{3″-[(5′″-Methyl-isoxazole-3′″-carbonyl)amino]-2″-oxo-2″H-pyridin-1″-yl}pent-4′-ynoyl-amino)-5-(2″″-oxopyrrolidin-3″″-yl)pent-2-enoic Acid Ethyl Ester] | 0.022 | > 10 | > 10 | > 10 | > 10 | > 10 | > 10 | > 10 | > 10 | > 10 | > 10 | > 10 | > 10 | > 10 | > 10 | > 10 | > 10 | 0.161 | 0.013 | 0.012 | CC50 at 4 days ([3]; line of ECHO-6): > 10 µM; CC50 (MRC-5 cells; line of ECHO-9): > 10 µM; CC50 (MRC-5 cells; line of ECHO-11): > 10 µM; EC50 (echovirus 6 (ECHO-6)): 0.021 µM
CCOC(=O)/C=C/[C@H](C[C@@H]1CCNC1=O)NC(=O)[C@H](Cc1ccc(F)c(F)c1)n1cccc(NC(=O)c2cc(C)on2)c1=O [Compound 33, trans-(2′S,3′″″S,4S)-4-(3′-(3″,4″-Difluorophenyl)-2′-{3′″-[(5″″-methylisoxazole-3″″-carbonyl)amino]-2′″-oxo-2′″H-pyridin-1′″-yl}propionylamino)-5-(2′″″-oxopyrrolidin-3′″″-yl)pent-2-enoic Acid Ethyl Ester] | 0.001 | > 10 |  | > 10 | > 10 | > 10 |  | > 10 | > 10 | > 10 | > 10 | > 10 | > 10 | > 10 | > 10 | > 10 | > 10 | 0.004 | 0.016 | 0.003 | CC50 at 4 days ([3]; line of ECHO-11): > 10 µM; CC50 (MRC-5 cells; line of ECHO-6): > 10 µM; CC50 (MRC-5 cells; line of ECHO-9): > 10 µM; EC50 (echovirus 6 (ECHO-6)): 0.015 µM
C#CC[C@@H](C(=O)N[C@H](/C=C/C(=O)OC(C)(C)C)C[C@@H]1CCNC1=O)n1cccc(NC(=O)c2cc(C)on2)c1=O [Compound 41, trans-(2′S,3′″″S,4S)-4-[2′-(3″-{[1′″-(5″″-Methylisoxazol-3″″-yl)methanoyl]amino}-2′″-oxo-2′″H-pyridin-1′″-yl)pent-4″-ynoylamino]-5-(2′″″-oxopyrrolidin-3′″″-yl)pent-2-enoic Acid tert-Butyl Ester] | 0.062 | > 10 |  | > 10 | > 10 | > 10 |  |  |  | > 10 |  |  | > 10 | > 10 |  | > 10 |  | 0.593 | 0.186 | 0.106 | CC50 at 4 days ([3]; line of ECHO-11): > 10 µM; CC50 (MRC-5 cells; line of ECHO-6): > 10 µM; CC50 (MRC-5 cells; line of ECHO-9): > 10 µM; EC50 (echovirus 6 (ECHO-6)): 0.147 µM
Cc1cc(C(=O)Nc2cccn([C@@H](Cc3ccc(F)c(F)c3)C(=O)N[C@H](/C=C/C(=O)OC(C)C)C[C@@H]3CCNC3=O)c2=O)no1 [Compound 48, trans-(2′S,3″″″S,4S)-4-[3′-(3″,4″-Difluorophenyl)-2′-(3′″-{[1″″-(5′″″-methylisoxazol-3′″″-yl)methanoyl]amino}-2″″-oxo-2″″H-pyridin-1″″-yl)propanoylamino]-5-(2″″″-oxopyrrolidin-3″″″-yl)pent-2-enoic Acid Isopropyl Ester] | 0.003 | > 10 | > 10 | > 10 | > 10 | > 10 | > 10 | > 10 | > 10 | > 10 | > 10 | > 10 | > 10 | > 10 | > 10 |  | > 10 | 1.12 |  | 0.057 | CC50 at 4 days ([3]; line of ECHO-9): > 10 µM
C#CC[C@@H](C(=O)N[C@H](/C=C/C(=O)OC1CCC1)C[C@@H]1CCNC1=O)n1cccc(NC(=O)c2cc(C)on2)c1=O [Compound 53, trans-(2′S,3′″″S,4S)-4-[2′-(3″-{[1′″-(5″″-Methylisoxazol-3″″-yl)methanoyl]amino}-2′″-oxo-2′″H-pyridin-1′″-yl)pent-4″-ynoylamino]-5-(2′″″-oxopyrrolidin-3′″″-yl)pent-2-enoic Acid Cyclobutyl Ester] | 0.04 | > 10 | > 10 | > 10 | > 10 | > 10 | > 10 | > 10 | > 10 | > 10 | > 10 | > 10 | > 10 | > 10 | > 10 |  | > 10 | 0.476 |  | 0.026 | CC50 at 4 days ([3]; line of ECHO-9): > 10 µM
CC[C@@H](C(=O)N[C@H](/C=C/C(=O)OCc1ccccc1)C[C@@H]1CCNC1=O)n1cccc(NC(=O)c2cc(C)on2)c1=O [Compound 62, trans-(2′S,3′″″S,4S)-4-[2′-(3″-{[1′″-(5″″-Methylisoxazol-3″″-yl)methanoyl]amino}-2′″oxo-2′″H-pyridin-1′″-yl)butanoylamino]-5-(2′″″-oxopyrrolidin-3′″″-yl)pent-2-enoic Acid Benzyl Ester] | 0.061 |  |  |  |  |  |  |  |  |  |  |  |  |  |  |  |  |  |  |  | CC50 (H1-HeLa cells; HRV-1A): > 10 µM; CC50 (H1-HeLa cells; HRV-2): > 10 µM; CC50 (H1-HeLa cells; HRV-3): > 10 µM; CC50 (H1-HeLa cells; HRV-9): > 10 µM; CC50 (H1-HeLa cells; HRV-10): > 10 µM; CC50 (H1-HeLa cells; HRV-11): > 10 µM; CC50 (H1-HeLa cells; HRV-13): > 10 µM; CC50 (H1-HeLa cells; HRV-16): > 10 µM; CC50 (H1-HeLa cells; HRV-19): > 10 µM; CC50 (H1-HeLa cells; HRV-23): > 10 µM; CC50 (H1-HeLa cells; HRV-25): > 10 µM; CC50 (H1-HeLa cells; HRV-39): > 10 µM; CC50 (H1-HeLa cells; HRV-78): > 10 µM; CC50 (H1-HeLa cells; HRV-Hanks): > 10 µM; EC50 ([1]; H1-HeLa): 0.298 µM; EC50 (coxsackievirus B2 (CVB2)): 0.016 µM; EC50 (coxsackievirus B5 (CVB5)): 0.02 µM; EC50 (echovirus 9 (ECHO-9) [5]): 0.004 µM
